These results are taken from ChEMBL document CHEMBL1135847, “Structure-activity relationship of linear peptide Bu-His-DPhe-Arg-Trp-Gly-NH(2) at the human melanocortin-1 and -4 receptors: arginine substitution” (Bioorg Med Chem Lett, 2002).

For data set [1], the target named is T1, Melanocortin receptor 4 (Homo sapiens, UniProt P32245). Nature of the data set: Agonist potency towards human Melanocortin 4 receptor. The data set is classed as functional.
The target in data set [2] is T2, Melanocyte-stimulating hormone receptor (Homo sapiens, UniProt Q01726). Nature of the data set: Agonist potency for human Melanocortin 1 receptor. The data set is classed as functional.
Target sequence in this assay (Q01726 whole entry): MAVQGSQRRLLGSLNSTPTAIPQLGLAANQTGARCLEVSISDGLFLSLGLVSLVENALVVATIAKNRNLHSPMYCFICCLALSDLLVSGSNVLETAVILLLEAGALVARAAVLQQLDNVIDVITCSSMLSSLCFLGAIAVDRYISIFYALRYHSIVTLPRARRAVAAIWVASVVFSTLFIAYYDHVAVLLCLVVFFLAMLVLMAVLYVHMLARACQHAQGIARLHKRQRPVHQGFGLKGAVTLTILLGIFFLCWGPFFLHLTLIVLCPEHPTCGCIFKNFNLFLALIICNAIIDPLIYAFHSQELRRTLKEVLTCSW
Data set [3] can be described thus: pKa value was evaluated. The format is physicochemical.
The target in data set [4] is T1, Melanocortin receptor 4. Briefly: Agonist potency towards human Melanocortin 4 receptor at 50 uM. The format is functional.
Data set [5] deals with T2, Melanocyte-stimulating hormone receptor. Briefly: Agonist potency towards human Melanocortin 1 receptor at 50 uM. The data set is classed as functional.
Target sequence in this assay (Q01726 whole entry, looked up): as the sequence (Q01726 whole entry) above

T1 sequence (P32245 whole entry): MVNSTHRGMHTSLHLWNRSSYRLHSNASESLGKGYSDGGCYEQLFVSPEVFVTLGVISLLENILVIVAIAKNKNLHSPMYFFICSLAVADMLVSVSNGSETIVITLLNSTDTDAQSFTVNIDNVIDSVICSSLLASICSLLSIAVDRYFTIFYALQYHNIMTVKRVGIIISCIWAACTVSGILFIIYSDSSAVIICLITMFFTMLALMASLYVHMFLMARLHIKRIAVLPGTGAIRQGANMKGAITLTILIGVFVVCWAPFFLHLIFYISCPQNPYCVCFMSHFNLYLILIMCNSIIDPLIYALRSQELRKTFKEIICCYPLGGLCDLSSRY

By EC50 is commonly meant the concentration at which the effect is half-maximal. For the compound `CCCCN[C@@H](Cc1cnc[nH]1)C(=O)N[C@H](Cc1ccccc1)C(=O)N[C@@H](CCCN(C)C)C(=O)N[C@@H](Cc1c[nH]c2ccccc12)C(=O)NCC(N)=O`, the EC50 in data set [1] was 3280 nM; in data set [2] it was 350 nM.

For the compound `CCCCN[C@@H](Cc1cnc[nH]1)C(=O)N[C@H](Cc1ccccc1)C(=O)N[C@@H](CCCNC(N)=O)C(=O)N[C@@H](Cc1c[nH]c2ccccc12)C(=O)NCC(N)=O`, the EC50 amounted to 760 nM in data set [1] and 950 nM in data set [2].

A word on the pKa: it is the pH at which an ionisable group is half protonated. Higher therefore signals a weaker acid or stronger base. Take `CCCCN[C@@H](Cc1cnc[nH]1)C(=O)N[C@H](Cc1ccccc1)C(=O)N[C@@H](CCCNC(N)=NC#N)C(=O)N[C@@H](Cc1c[nH]c2ccccc12)C(=O)NCC(N)=O`: the figures for the EC50 in data set [1] and in data set [2] were 70 nM and 15 nM, respectively. This compound gave a pKa in data set [3] of approximately 0.

On to `CCCCN[C@@H](Cc1cnc[nH]1)C(=O)N[C@H](Cc1ccccc1)C(=O)N[C@@H](CCC(=O)NC(=N)N)C(=O)N[C@@H](Cc1c[nH]c2ccccc12)C(=O)NCC(N)=O`, for which the concentration for a half-maximal effect (EC50) in data set [1] was 10 nM; in data set [2], 1 nM. The same compound registered a pKa in data set [3] of approximately 7.

With `CCCCN[C@@H](Cc1c[nH]cn1)C(=O)N[C@H](Cc1ccccc1)C(=O)N[C@@H](CCCCN(C)C)C(=O)N[C@@H](Cc1c[nH]c2ccccc12)C(=O)NCC(N)=O`, the values for the concentration for a half-maximal effect (EC50) in data set [1] and in data set [2] were 1670 nM and 60 nM, respectively.

On to `CCCCN[C@@H](Cc1cnc[nH]1)C(=O)N[C@H](Cc1ccccc1)C(=O)N[C@@H](CCCCNCc1ccccc1)C(=O)N[C@@H](Cc1c[nH]c2ccccc12)C(=O)NCC(N)=O`, for which the values for the EC50 in data set [1] and in data set [2] were 4800 nM and 85 nM, respectively.

`CCCCN[C@@H](Cc1c[nH]cn1)C(=O)N[C@H](Cc1ccccc1)C(=O)N[C@@H](CCCCNC(C)C)C(=O)N[C@@H](Cc1c[nH]c2ccccc12)C(=O)NCC(N)=O`: the Activity in data set [4] was determined as 25%. The same compound gave a concentration giving a half-maximal response (EC50) in data set [2] of 255 nM.

Consider `CCCCN[C@@H](Cc1cnc[nH]1)C(=O)N[C@H](Cc1ccccc1)C(=O)N[C@@H](CCCNC(=N)N)C(=O)N[C@@H](Cc1c[nH]c2ccccc12)C(=O)NCC(N)=O`, for which the results for the EC50 in data set [1] and in data set [2] were 20 nM and 10 nM, respectively.

Regarding `CCCCN[C@@H](Cc1c[nH]cn1)C(=O)N[C@H](Cc1ccccc1)C(=O)N[C@@H](CCCN)C(=O)N[C@@H](Cc1c[nH]c2ccccc12)C(=O)NCC(N)=O`, the figures for the EC50 in data set [1] and in data set [2] were 2500 nM and 900 nM, respectively.

`CCCCN[C@@H](Cc1c[nH]cn1)C(=O)N[C@H](Cc1ccccc1)C(=O)N[C@@H](CCC/N=C(/N)N[N+](=O)[O-])C(=O)N[C@@H](Cc1c[nH]c2ccccc12)C(=O)NCC(N)=O`: the Activity is 85% in data set [4] and 40% in data set [5].

On to `CCCCN[C@@H](Cc1c[nH]cn1)C(=O)N[C@H](Cc1ccccc1)C(=O)N[C@@H](Cc1c[nH]cn1)C(=O)N[C@@H](Cc1c[nH]c2ccccc12)C(=O)NCC(N)=O`, for which the EC50 in data set [1] was determined as 1420 nM; in data set [2], 1700 nM.
